Reference: patent US9341616B2, “Sweet taste receptor chimeric proteins and use thereof” (AJINOMOTO CO., INC., priority 2014, dated 2016)
Where two headings read alike, the source gives them in different places. Residues, ends and D or L forms follow the SMILES beside them.

Molecular target: h-mT1R2-481/T1R3mosaicA (UniProt Q8TE23+Q925D8, A12W/A31M/A537S/A558R/A564V/A568V/A570T/A588V/A645S/A649T/A658V/A698V/A702T/A782V/A793V/A807V/C582S/C678S/E16H/E530V/E534N/E542M/E548N/E725V/F14L/F29L/F525Y/F541I/F612A/F622V/F665L/F695L/G696N/G701T/H484Y/H528R/H728R/I36V/I481V/I486P/I490V/I510L/I518V/I595M/I60P/I617V/I643V/I645L/I692L/I695G/I706V/I740A/I803L/K30R/K504M/K555R/K565R/K626T/K714N/K818R/K827G/L17P/L521P/L560F/L571I/L578I/L610P/L631F/L636F/L639V/L684P/L688V/L702I/L734M/L735F/L800F/L823M/L825Q/M19T/M492I/M616G/M644L/M682V/M690V/M744T/M748V/N52R/N540G/N541S/N547G/N58S/N63T/N675D/N721H/P545F/P561R/P564S/P61V/P638T/P824S/Q32K/Q536L/Q53S/Q546K/Q550E/Q555R/Q56R/Q611L/Q676H/Q757R/Q795R/Q831P/R498S/R632Q/R667S/S22P/S45E/S501P/S547N/S550A/S576L/S595F/S610P/S628F/S635P/S637R/S663R/S670G/S679G/S681F/S703N/S717H/S727G/S784D/S804G/T46A/T50G/T529S/T542A/T549I/T609V/T629S/T642S/T663I/T694M/T705I/T706G/T716I/T813A/V508I/V512P/V557A/V573A/V584A/V585L/V613L/V617M/V673M/V687A/V691A/V694A/V718L/V718M/V723A/V729T/V738A/V741L/V774I/V791M/V805L/V812A/V821L/W599R/W676R/W824R/Y533F/Y615F/Y671F/Y680C/Y769S/Y783H/Y794L)
Sequence (Q8TE23 with tags, fused parts or gaps with the stated changes limits assumed): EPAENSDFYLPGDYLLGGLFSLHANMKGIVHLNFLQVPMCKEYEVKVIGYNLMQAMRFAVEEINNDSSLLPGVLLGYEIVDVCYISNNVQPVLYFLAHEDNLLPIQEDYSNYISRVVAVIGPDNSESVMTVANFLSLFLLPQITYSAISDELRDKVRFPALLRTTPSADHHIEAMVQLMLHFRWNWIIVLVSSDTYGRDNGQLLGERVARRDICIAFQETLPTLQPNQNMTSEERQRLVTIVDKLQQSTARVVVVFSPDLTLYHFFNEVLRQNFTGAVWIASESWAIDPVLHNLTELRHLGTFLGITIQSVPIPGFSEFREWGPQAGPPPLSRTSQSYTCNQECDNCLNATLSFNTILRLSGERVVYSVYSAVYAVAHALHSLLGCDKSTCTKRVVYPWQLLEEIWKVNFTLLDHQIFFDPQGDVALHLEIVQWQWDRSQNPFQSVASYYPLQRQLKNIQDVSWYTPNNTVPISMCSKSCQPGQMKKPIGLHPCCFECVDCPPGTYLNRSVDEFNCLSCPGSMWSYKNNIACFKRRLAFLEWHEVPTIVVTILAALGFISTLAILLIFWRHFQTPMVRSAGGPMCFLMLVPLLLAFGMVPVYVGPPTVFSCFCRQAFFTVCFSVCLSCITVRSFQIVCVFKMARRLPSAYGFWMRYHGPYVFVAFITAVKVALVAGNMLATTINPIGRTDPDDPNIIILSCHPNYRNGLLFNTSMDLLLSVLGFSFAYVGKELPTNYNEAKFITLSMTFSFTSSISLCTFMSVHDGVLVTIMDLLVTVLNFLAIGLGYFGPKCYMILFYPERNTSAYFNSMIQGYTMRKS
Sequence (Q925D8 with tags, fused parts or gaps with the stated changes limits assumed): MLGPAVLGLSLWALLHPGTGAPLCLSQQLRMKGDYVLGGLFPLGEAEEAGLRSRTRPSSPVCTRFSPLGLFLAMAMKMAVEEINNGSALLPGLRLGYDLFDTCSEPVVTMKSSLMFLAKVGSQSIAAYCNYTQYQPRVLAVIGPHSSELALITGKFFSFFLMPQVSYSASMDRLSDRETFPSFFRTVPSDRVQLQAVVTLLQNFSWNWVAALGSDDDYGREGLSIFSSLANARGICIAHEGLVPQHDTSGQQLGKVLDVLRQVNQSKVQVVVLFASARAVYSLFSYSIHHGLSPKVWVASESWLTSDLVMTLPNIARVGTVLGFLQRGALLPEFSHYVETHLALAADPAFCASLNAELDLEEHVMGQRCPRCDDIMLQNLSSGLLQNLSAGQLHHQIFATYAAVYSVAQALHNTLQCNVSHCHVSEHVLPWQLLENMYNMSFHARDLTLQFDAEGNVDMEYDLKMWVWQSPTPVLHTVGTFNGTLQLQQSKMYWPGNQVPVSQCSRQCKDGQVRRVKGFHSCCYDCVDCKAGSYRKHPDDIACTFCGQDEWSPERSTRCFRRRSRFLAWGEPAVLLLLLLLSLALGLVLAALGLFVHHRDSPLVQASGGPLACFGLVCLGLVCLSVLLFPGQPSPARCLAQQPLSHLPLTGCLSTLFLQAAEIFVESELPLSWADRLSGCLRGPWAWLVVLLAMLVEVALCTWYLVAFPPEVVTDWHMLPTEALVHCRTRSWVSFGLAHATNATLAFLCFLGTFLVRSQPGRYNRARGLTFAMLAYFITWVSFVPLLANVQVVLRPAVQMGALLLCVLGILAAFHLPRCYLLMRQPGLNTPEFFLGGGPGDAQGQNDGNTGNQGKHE
Details: HEK293E cells
[1] = Table 3, genes h-mT481/T3mA (h-mT1R2-481, T1R3mA)
[2] = Table 4, genes h-mT481/T3mA (h-mT1R2-481, T1R3mA)
[3] = Table 5, genes h-mT481/T3mA (h-mT1R2-481, T1R3mA)
[4] = Table 6, genes h-mT481/T1Rm3A (h-mT1R2-481, T1R3mA)

Structure (SMILES) | S/N [1] | S/N [2] | S/N [3] | S/N [4]
OC[C@H]1O[C@H](O[C@]2(CCl)O[C@H](CCl)[C@@H](O)[C@@H]2O)[C@H](O)[C@@H](O)[C@H]1Cl [Sucralose, sucralose] | 7.8 | 9.0 | 7.8 | 7.0
C[C@H](NC(=Nc1ccc(C#N)cc1)NCC(=O)O)c1ccccc1 [SC-45647, [3-[(S)-1-phenylethyl]-2-(4-cyanophenyl)guanidino]acetic acid] | 8.4 | 7.9 | 8.4 | 8.7
COc1ccc(CCC(=O)c2c(O)cc(O[C@@H]3O[C@H](CO)[C@@H](O)[C@H](O)[C@H]3O[C@@H]3O[C@@H](C)[C@H](O)[C@@H](O)[C@H]3O)cc2O)cc1O [NHDC, neohesperidin dihydrochalcone] |  |  | 4.3 | 5.9
COC(=O)[C@H](Cc1ccccc1)NC(=O)[C@H](CC(=O)O)NCCCc1ccc(OC)c(O)c1 [Advantame, advantame] | 10.6 | 11.3 | 10.6 | 10.5
COC(=O)[C@H](Cc1ccccc1)NC(=O)[C@H](CC(=O)O)NCCC(C)(C)C [Neotame, neotame] | 8.8 | 9.4 | 8.8 | 8.9
COC(=O)[C@H](Cc1ccccc1)NC(=O)[C@@H](N)CC(=O)O [Aspartame, aspartame] (HELM PEPTIDE1{D.F.[CO[*:1]]}$$$$V2.0) | 7.0 | 9.4 | 7.0 | 7.3
OC[C@H]1O[C@@](CO)(O[C@H]2O[C@H](CO)[C@@H](O)[C@H](O)[C@H]2O)[C@@H](O)[C@@H]1O [Sucrose, sucrose] | 3.4 | 3.9 | 3.4 | 3.8
CC1=CC(=O)NS(=O)(=O)O1 [Acesulfame K, acesulfame potassium] | 4.7 | 5.4 | 4.7 | 6.0
O=C1NS(=O)(=O)c2ccccc21.[Na] [Saccharin Na, sodium saccharin] | 5.6 | 5.6 | 5.6 | 6.9
